The source made the active and inactive calls.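 The calls were made as follows: active = mean IC50 of 20 µM or lower in the 6 hour cytotoxicity test; inactive = the rest.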
system: CHO-XBP1 cytotoxicity, ATPlite luminescence, 6 h; test: cytotoxicity in CHO-XBP1 reporter cells, SAR follow-up, cytotoxicity control for UPR adaptive arm activator project, cell-based, 6 h exposure, ATPlite luminescence (AID 588569)

Row | Structure (SMILES) | IC50
1 | O=C(Nc1ccc(Cl)cc1)c1cc(-c2ccncc2)nc2ccccc12 | 75.4 µM (inactive)
2 | Cc1ccc(NC(=O)c2cc(-c3ccncc3)nc3ccccc23)cc1 | > 80 µM (inactive)
3 | O=C(Nc1ccc(F)cc1)c1cc(-c2ccncc2)nc2ccccc12 | > 80 µM (inactive)
4 | O=C(Nc1ccc(Br)c(C(F)(F)F)c1)c1cc(-c2ccncc2)nc2ccccc12 | > 80 µM (inactive)
5 | O=C(Nc1ccc(C(F)(F)F)cc1)c1cc(-c2ccncc2)nc2ccccc12 | 70.4 µM (inactive)
6 | Cc1nc(Nc2nc(-c3ccccc3)cc(=O)[nH]2)nc2ccccc12 | 36.4 µM (inactive)
7 | Cc1cc(Br)cc(NC(=O)c2cc(-c3ccncc3)nc3ccccc23)c1 | > 80 µM (inactive)

— PubChem BioAssay AID588569 (Sanford-Burnham Center for Chemical Genomics, 2011)
